According to patent publication US20090117607A1, “Methods For Differential Detection Of Hypoxic Tissue From A Tissue Sample Of A Mammalian Subject” (priority 2007, published 2009):
Where “and” joins values, the source holds several entries; their conditions need not be identical. Identical values can stand only once. Like-named read-outs stand apart in the source and are kept apart here.

Key:
[1] = system: head and neck squamous cell carcinoma (HNSCC) tumor tissue; assay: Quantitative fluorescence immunohistochemical analysis of EF5 binding in HNSCC tumor sections of patients; format: in vivo, human; parameters: key to Maximum CF95 Mean: % of CRB (maximal EF3 binding), scale 0-100%
Experimental: EF5 Administration. The National Cancer Institute, Division of Cancer Treatment supplied EF5 in 100 mL vials containing an aqueous solution of 3 mg/mL EF5 also containing 5% dextrose and 2.4% ethanol. This EF5 solution was administered through a peripheral IV catheter, 24-48 hours before surgery at a rate no greater than 350 mL/hr and to a total dose of 9-21 mg/kg. Blood samples for drug levels were obtained before and 1 hour after the completion of drug administration, and at the time of surgery. Calculation of drug time/dose concentration (area under the curve, AUC) allowed the absolute EF5 tissue binding level to be corrected for variations in drug dose and exposure time between patients. Koch, et al., Cancer Chemother. Pharmacol., 2001, 48, 177-187.
Tissue Acquisition and processing for EF5 Binding. 24-48 hours after completion of drug administration, tumors were resected or biopsied and placed in sterile, iced EXCELL 610 medium (JRH Biosciences, Lenexa, Kans.). In collaboration with the pathologist, tissue samples deemed unnecessary for clinical diagnosis were taken to the lab for processing and analysis.
IHC staining methods and quantitative fluorescence microscopy of EF5 in in situ tumor sections and EF3 in tissue cubes for cube reference binding (CRB) were performed as reported previously. Evans, et al., Cancer Res., 2004, 64, 1886-1892. CRB determination is an in vitro technique where tissue cubes are incubated in 200 μM EF3, a sister drug of EF5, under controlled hypoxic conditions for 3 hours. The goal of this procedure was to determine the maximum level of EF3 binding possible for each patient's tumor. This technique allowed normalization of the in situ EF5 binding to each tumor's maximum binding value after correction for the AUC. Koch, et al., Cancer Chemother. Pharmacol., 2001, 48, 177-187. These values were used to calculate the maximum and average ‘% CRB’ value for each tumor, as described previously and briefly below. Evans, et al., Cancer Res., 2000, 60, 2018-2024. Thus, EF5 binding values for each tumor tissue are reported on a scale of 0-100% allowing for comparisons within and between tumors.
Quantitative Image analysis. The quantitative analysis of tumor sections stained for EF3/EF5 has been previously described. Evans, J. Invest. Derm., 2006; Evans, et al., Int. J. Radiat. Oncol., Biol., Phys., 2001, 49, 587-596; Busch, et al., Adv Exp Med. Biol., 2003, 510, 37-43. Briefly, tissue sections were counterstained with Hoechst 33342 to identify the location of intact nuclei. These images were used to create bitmaps in order to generate binary masks of viable tissue regions. Masked regions of each section were analyzed for EF5-dependent immunofluorescence intensity using routines written in MatLab (The MathWorks, Inc., Natick, Mass.). EF5 intensity values of these regions were corrected for tissue section thickness, camera exposure time, relative lamp intensity, EF5 drug exposure (AUC) and CRB. Evans, et al., Cancer Res., 2000, 60, 2018-2024; Evans, et al., Int. J. Radiat. Oncol., Biol., Phys., 2001, 49, 587-596; Evans, et al, Clin. Cancer Res., 2004, 10, 8177-8184; Koch, et al., Cancer Chemother. Pharmacol., 2001, 48, 177-187. Data were then summarized by generating histograms of all positive pixels in the masked image, which were then converted into a cumulative frequency plot. The number of pixels at or below a given binding level can be identified from this plot. For example, CF95=20% would mean that 95% of the EF5 values in the image were at or below 20% of CRB. Terms to describe tissue oxygenation based on EF5 studies have been approximated by data from in vitro studies (Table 1). Koch, Method Enzymol., 2002, 352, 3-31. Normoxic conditions correspond to a CF95≈1%; for modestly/mildly hypoxic conditions, CF95≈3%; for moderately hypoxic conditions, CF95≈10%; for severely hypoxic conditions, CF95≈30%, and for anoxia, the CF95100%. The pO2 corresponding to these descriptive terms is found in Table 1. […]

hypoxic cells = conditions: cited from earlier work
[2] = EF5-related toxicity in patients after IV EF5 administration; format: in vivo, human; conditions: 22 HNSCC patients
Description: Human Subjects. The Institutional Review Board of the University of Pennsylvania Clinical Trials and Scientific Monitoring Committee at the University of Pennsylvania Abramson Cancer Center and the Cancer Therapeutics Evaluation Program of the National Cancer Institute approved this prospective trial of EF5. All patients signed an approved consent form for both the study and for privacy (HIPPA). Patients of all ethnic and gender groups were included. Eligible patients were those undergoing resection or biopsy of a HNSCC as clinically indicated. Exclusion criteria included patients with a history of grade III or IV peripheral neuropathy, pregnant or nursing patients and patients <18 years old. Coleman, et al., Int. J. Radiat. Oncol., Biol., Phys., 1990, 18, 389-393. EF5 Administration. The National Cancer Institute, Division of Cancer Treatment supplied EF5 in 100 mL vials containing an aqueous solution of 3 mg/mL EF5 also containing 5% dextrose and 2.4% ethanol. This EF5 solution was administered through a peripheral IV catheter, 24-48 hours before surgery at a rate no greater than 350 mL/hr and to a total dose of 9-21 mg/kg. Blood samples for drug levels were obtained before and 1 hour after the completion of drug administration, and at the time of surgery. […]

HNSCC = conditions: meta-analysis of trials; cited from earlier work
HNSCC hypoxic tumors = conditions: 45 HNSCC patients, adjuvant cisplatin with tirapazamine; cited from earlier work

**Q.** What does the source list for `O=C(Cn1ccnc1[N+](=O)[O-])NCC(F)(F)C(F)(F)F` [EF5]?
**A.** Maximum CF95 Mean ([1]; Age <60 y (11)): 25.66; Maximum CF95 Mean ([1]; Age ≧60 y (11)): 21.11; Maximum CF95 Mean ([1]; All patients (22)): 23.38; Maximum CF95 Mean ([1]; Differentiation: Moderate (10)): 20.00; Maximum CF95 Mean ([1]; Differentiation: Moderate to poor, poor (7)): 35.87; Maximum CF95 Mean ([1]; Differentiation: Well, well to moderate (5)): 12.65; Maximum CF95 Mean ([1]; Gender: Men (18)): 26.74; Maximum CF95 Mean ([1]; Gender: Women (4)): 8.27; Maximum CF95 Mean ([1]; Nodal stage N0-N1 (15)): 17.96; Maximum CF95 Mean ([1]; Nodal stage N2-N3 (7)): 35.00; EF5 binding average CF95 ([1]; individual patient tumor, average of all tissue sections, biopsy 24-48 h after EF5 IV 9-21 mg/kg): 0.8 % CRB and 0.9 % CRB and 1.9 % CRB and 1.1 % CRB and 4.2 % CRB and 5.6 % CRB and 6.2 % CRB and 6.1 % CRB and 6.4 % CRB and 10.8 % CRB and 16.0 % CRB and 19.6 % CRB and 18.7 % CRB and 12.5 % CRB and 26.0 % CRB and 14.2 % CRB and 23.0 % CRB and 36.9 % CRB and 38.5 % CRB and 34.5 % CRB and 0.4 % CRB and 1.3 % CRB; EF5 binding maximum CF95 ([1]; individual patient tumor, brightest binding of all tissue sections, biopsy 24-48 h after EF5 IV 9-21 mg/kg): 1.4 % CRB (2×) and 2.8 % CRB and 6.0 % CRB and 7.9 % CRB and 8.2 % CRB and 8.9 % CRB and 10.0 % CRB and 16.4 % CRB and 17.8 % CRB and 19.4 % CRB and 23.1 % CRB and 25.4 % CRB and 30.7 % CRB and 35.8 % CRB and 36.0 % CRB and 61.7 % CRB and 66.0 % CRB and 66.5 % CRB and 66.6 % CRB and 1.2 % CRB and 1.3 % CRB; Maximum EF5 binding (%) (hypoxic cells; Anoxia, pO2 0%): 100%; Maximum EF5 binding (%) (hypoxic cells; Moderate hypoxia, pO2 0.5% (3.8 mm Hg)): 10%; Maximum EF5 binding (%) (hypoxic cells; Modest (mild) hypoxia, pO2 2.5% (19 mm Hg)): 3%; Maximum EF5 binding (%) (hypoxic cells; Normoxia, pO2 10% (76 mm Hg)): 1%; Maximum EF5 binding (%) (hypoxic cells; Severe hypoxia, pO2 0.1% (0.76 mm Hg)): 30%; EF5-related grade 1 and 2 toxicity [2]: One patient each experienced EF5-related grade 1 and 2 toxicity; EF5-related grade 3 or 4 toxicity ([2]; 30 days following EF5 administration): no episodes of EF5-related grade 3 or 4 toxicity

**Q.** With `COCC(O)Cn1ccnc1[N+](=O)[O-]` (stereo not drawn) [misonidazole] as the compound, how does the “Effectiveness as hypoxic cell sensitizer” value (HNSCC) read?
**A.** could be identified in a subset of patients

**Q.** Which “Outcome (local-regional failure) of patients with hypoxic tumors” value (HNSCC hypoxic tumors) does the source give for `Nc1n[n+]([O-])c2ccccc2[n+]1[O-]` [tirapazamine] here?
**A.** did as well as those with oxic tumors
